Assay results taken from patent publication US20100267750A1, “METHODS AND COMPOSITIONS FOR TREATING PAIN” (priority 2005, published 2010).
pIC50: −log10 of the molar value.

Key:
[1] = tested on: carrageenan-induced inflammation (paw volume); experiment: Carrageenan model of acute inflammatory pain; assay type: in vivo, rat; settings: IP, 30-60 minutes before testing
Method: In this study, the drug administered was either a TRPA1 inhibitor or the non-steroidal anti-inflammatory diclofenac. Following administration of both carrageenan and drug or vehicle control, paw volume was measured and used to assess decreased inflammation.

[2] = tested on: bladder pressure in BOO rats; experiment: Partial bladder outlet obstruction (BOO) model of incontinence; settings: intravesical infusion
Description: Efficacy of the varying doses of TRPA1 inhibitory compound were compared to controls administered excipients alone (sham control). Efficacy was also compared to rats administered a positive control, such as atropine.
Female Sprague Dawley rats were used in these studies. Rats underwent surgical partial bladder outlet obstruction (BOO) or sham surgery. Five weeks after BOO (or sham) surgery, an intravesical catheter was surgically implanted into the dome of the bladder for conducting urodynamic studies. One week after catheter implantation (6 weeks after BOO or sham), urodynamic studies began. […] An analytic balance beneath the wire-bottom animal cage measured the amount of urine voided during continuous cystometry. […]
For each CMG cycle, the following parameters were assessed: infused volume (the amount of saline or drug infused for each CMG cycle); void volume (the amount of urine voided by the animal for each CMG cycle); minimum pressure (minimum pressure during filling); threshold pressure (pressure prior to micturition when bladder pressure begins to rise steeply); average pressure (average pressure during filling and before threshold); maximum pressure; intermicturition interval (time between two subsequent voiding events); urine flow rate index.

[3] = Plasma levels / pharmacokinetics in male Sprague-Dawley rat; assay type: in vivo; settings: oral suspension 12 mg/kg
Method: Compound 200 plasma levels were determined via HPLC/MS/MS following a single intravenous bolus dose of 0.9 mg/kg, an intraperitoneal dose of 12 mg/kg (suspension), and an oral dose of 12 mg/kg (suspension) in the male Sprague-Dawley rat. […] For intraperitoneal administration, Compound 200 was formulated as a uniform suspension in CMC (carboxymethylcellulose) at a target concentration of 1 mg/mL and administered at a dose volume of 10 mL/kg. For oral administration, Compound 200 was formulated as a uniform suspension in CMC (carboxymethylcellulose), at a target concentration of 1 mg/mL, administered by gavage, at a dose volume of 10 mL/kg, to the conscious, fasted, male Sprague-Dawley rat.

[4] = tested on: formalin induced paw flinching; experiment: Formalin model of pain; assay type: in vivo, rat; settings: 2% formalin intraplantar, drug 15 min before
Method: As outlined above, the formalin model involves injection of a formalin solution intradermally or […]. Injection of formalin solution invokes a biphasic response, and thus provides a model for both nociceptive and inflammatory pain. The formalin model can be used to evaluate the effectiveness of an exemplary TRPA1 inhibitor in the treatment of pain. […] Briefly, the following protocol was followed. Male Holtzmann rats received intraplantar injections of 50 μL of 2% formalin. Paw flinching was detected by an automated sensor detecting movement of a small metal band placed on the injected hind paw. Drug or vehicle was administered approximately 15 minutes prior to the injection of formalin. The animal's response to injection of the irritant was measured by counting flinches per minutes during the Early Phase (the first 5 minutes following injection of formalin), during the Late Phase (approximately 30 minutes after injection of formalin), and during the intervening pain free phase. In FIG. 2, the right most bar for each data set (Early Phase and Late Phase) represents administration of vehicle alone and the left most bar represents administration of gabapentin. […]

[5] = tested on: CFA induced thermal hyperalgesia; experiment: CFA model of inflammatory pain
Method: FIG. 4 summarizes data obtained following testing of Compound 200 in the CFA model. Naive rats were pretested for sensitivity to a heat stimulus in the Hargreaves apparatus. The next day, 100 μL of complete Freund's adjuvant (CFA) was injected into the plantar surface of the right hindpaw. Two days later, in the morning, the rats were again pretested. In the afternoon, rats were injected with either vehicle control or with drug (TRPA1 inhibitor 200 or the non-steroidal anti-inflammatory diclofenac). Drugs or vehicle were injected intraperitoneally, and 45 minutes later rats were tested for hyperalgesia by applying the heat source to the CFA injected and uninjected hindpaw and measuring latency to withdrawal.

[6] = tested on: bradykinin induced tactile allodynia; experiment: Bradykinin induced pain model; assay type: in vivo, rat
Method: As outlined above, the bradykinin model involves an intraplantar injection of a 5 ng/uL solution of bradykinin. Injection of the bradykinin solution typically causes a rapid sensitization. Sensitization is measured by assessing the thermal escape latency of the injected paw in response to a mild thermal stimulus delivered by a modified Hargreaves apparatus. FIGS. 1a and 1b summarize data obtained following testing of Compound 200 in the bradykinin model. This study examined the antinociceptive effects of 200 mg/kg, 50 mg/kg, and 12.5 mg/kg intraperitoneal Compound 200 on bradykinin induced tactile allodynia. […] Inhibitor or vehicle were injected intraperitoneally (IP). […] Throughout the study, general behavioral assessments were made during each period of observation. Observations included tactile allodynia (vocalization/agitation induced by light touch applied to the body surface), spontaneous vocalization, biting and chewing of body surface, loss of hind limb placing and stepping reflex, loss of hind limb weight bearing, and loss of righting reflex. Additionally, mechanical allodynia was assessed and measured. The results provided in FIGS. 1a and 1b are based on assessment of mechanical allodynia.

hTRPA1 = molecular target: T1, hTRPA1 (Homo sapiens, UniProt O75762, K186N); experiment: hTRPA1 Fluo4 calcium flux assay in HEK293/TREx cells; assay type: cell-based; settings: Table 2; read-out: hTRPA1 Fluor IC50
T1 construct: expressed in transfected cells; host or cells: HEK293/TREx (Invitrogen), stably transfected, tetracycline-induced
T1 sequence (O75762 whole entry K186N): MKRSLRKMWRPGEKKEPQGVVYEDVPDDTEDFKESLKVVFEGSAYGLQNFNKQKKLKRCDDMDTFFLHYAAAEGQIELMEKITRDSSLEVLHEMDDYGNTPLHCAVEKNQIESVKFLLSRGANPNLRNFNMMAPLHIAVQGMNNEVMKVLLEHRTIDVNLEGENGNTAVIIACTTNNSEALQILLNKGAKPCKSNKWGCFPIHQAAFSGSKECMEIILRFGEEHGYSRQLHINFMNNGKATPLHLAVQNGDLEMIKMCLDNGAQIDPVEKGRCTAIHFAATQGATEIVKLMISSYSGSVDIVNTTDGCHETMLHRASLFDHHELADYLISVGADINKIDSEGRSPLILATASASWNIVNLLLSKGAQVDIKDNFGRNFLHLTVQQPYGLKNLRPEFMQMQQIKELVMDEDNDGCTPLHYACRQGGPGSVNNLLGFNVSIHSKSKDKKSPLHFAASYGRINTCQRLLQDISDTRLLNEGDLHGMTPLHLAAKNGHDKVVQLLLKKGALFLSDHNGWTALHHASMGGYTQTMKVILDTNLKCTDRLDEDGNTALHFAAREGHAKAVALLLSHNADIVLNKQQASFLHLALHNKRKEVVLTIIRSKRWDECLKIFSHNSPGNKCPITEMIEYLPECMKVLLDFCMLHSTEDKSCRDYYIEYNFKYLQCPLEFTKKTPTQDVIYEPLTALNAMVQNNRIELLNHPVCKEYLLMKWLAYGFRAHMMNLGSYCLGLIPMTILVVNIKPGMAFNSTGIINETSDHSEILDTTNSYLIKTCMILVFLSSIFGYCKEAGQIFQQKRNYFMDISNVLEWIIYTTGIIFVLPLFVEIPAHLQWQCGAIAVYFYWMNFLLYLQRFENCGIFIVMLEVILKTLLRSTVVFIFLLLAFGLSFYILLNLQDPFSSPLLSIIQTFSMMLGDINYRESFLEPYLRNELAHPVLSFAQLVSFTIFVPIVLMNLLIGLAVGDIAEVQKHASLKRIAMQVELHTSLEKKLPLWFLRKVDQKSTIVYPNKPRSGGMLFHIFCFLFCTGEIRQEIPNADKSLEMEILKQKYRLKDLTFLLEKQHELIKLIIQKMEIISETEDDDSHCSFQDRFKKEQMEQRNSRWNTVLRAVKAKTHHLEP
Description: The assay depended on detection of the rise in intracellular Ca^2+ concentration ([Ca^2+]i) following channel activation in cells inducibly expressing the TRPA1 channel. Ca^2+ rise was quantified with the use of fluorescent Ca^2+ indicators that were loaded into cells and thereafter indicated the [Ca^2+]i. Ca^2+ influx followed activation of the TRPA1 channel. Compounds inhibiting the [Ca^2+]i rise were considered hits for further investigation.
These cells were maintained in the growth medium recommended by the manufacturer supplemented with 100 μg/ml hygromycin to promote retention of the TRPA1 construct. After growing to near confluency, cells were plated at a density of ˜25,000 cells/well in 384 well CellBind plates (Corning) in the presence of 1 μg/ml tetracycline, and allowed to grow for 20-30 hrs. A nearly confluent monolayer resulted. […] These controls defined a screening window, and “hits” were defined as those compounds inhibiting the fluorescence response by at least 40%. IC50 values were determined for compounds defined as “hits.” The Fluo4 cell-based fluorescence assay was used to determine the intracellular Ca^2+ concentration in the presence of varying drug concentration. […]

pIC50 (hTRPA1) | Structure (SMILES) | paw volume (inflammation) [1] | maximum bladder pressure [2] | threshold bladder pressure [2] | time at which Cmax occurred [3] [min] | flinches per minute, Early Phase [4] | flinches per minute, Late Phase [4] | control paw (uninflamed) sensation ([5]; IP, tested 45 minutes later) | efficacy compared with diclofenac ([5]; IP, tested 45 minutes later) | thermal hyperalgesia, CFA injected paw ([5]; IP, tested 45 minutes later) | toxicity ([5]; rat, in vivo, 45 min) | effect on mechanical threshold after bradykinin injection ([6]; IP 12.5, 50, 200 mg/kg, 30 min before bradykinin) | behavioral parameters ([6]; IP doses up to 200 mg/kg) | sedation ([6]; highest dose (200 mg/kg IP))
– | CC(C)c1ccc(NC(=O)Cn2cnc3c2c(=O)n(C)c(=O)n3C)cc1 [Compound 200, 2-(1,3-dimethyl-2,6-dioxo-1,2,3,6-tetrahydropurin-7-yl)-N-(4-isopropylphenyl)acetamide] | decreased paw volume | decreased | decreased | 45 | substantially reduced | substantially reduced | not affected | superior to diclofenac | reduced thermal hyperalgesia | without toxicity | dose dependent effect | no changes | only mild sedation was observed in 3 of 8 rats
≥ 4.52 | COC(=O)c1ccc(C)c(NC(=O)Cn2cnc3c2c(=O)n(C)c(=O)n3C)c1 [Compound 346] | – | – | – | – | – | – | – | – | – | – | – | – | –
